Assays:
Type in all cases: functional
[1] = system: Aspergillus niger; assay: Antifungal activity against Aspergillus niger assessed as growth inhibition at 100 ug/mL after 24 hr by cup-plate method; settings: read-out: DIZ
[2] = system: Aspergillus niger; assay: Antifungal activity against Aspergillus niger assessed as growth inhibition at 50 ug/mL after 24 hr by cup-plate method; settings: read-out: DIZ
[3] = system: Candida albicans; assay: Antifungal activity against Candida albicans assessed as growth inhibition at 100 ug/mL after 24 hr by cup-plate method; settings: read-out: DIZ
[4] = system: Candida albicans; assay: Antifungal activity against Candida albicans assessed as growth inhibition at 50 ug/mL after 24 hr by cup-plate method; settings: read-out: DIZ
[5] = system: Pseudomonas aeruginosa; assay: Antibacterial activity against Pseudomonas aeruginosa assessed as growth inhibition at 100 ug/mL after 24 to 48 hr by cup-plate method; settings: read-out: DIZ
[6] = system: Pseudomonas aeruginosa; assay: Antibacterial activity against Pseudomonas aeruginosa assessed as growth inhibition at 50 ug/mL after 24 to 48 hr by cup-plate method; settings: read-out: DIZ
[7] = system: Escherichia coli; assay: Antibacterial activity against Escherichia coli assessed as growth inhibition at 100 ug/mL after 24 to 48 hr by cup-plate method; settings: read-out: DIZ
[8] = system: Bacillus subtilis; assay: Antibacterial activity against Bacillus subtilis assessed as growth inhibition at 100 ug/mL after 24 to 48 hr by cup-plate method; settings: read-out: DIZ
[9] = system: Escherichia coli; assay: Antibacterial activity against Escherichia coli assessed as growth inhibition at 50 ug/mL after 24 to 48 hr by cup-plate method; settings: read-out: DIZ
[10] = system: Bacillus subtilis; assay: Antibacterial activity against Bacillus subtilis assessed as growth inhibition at 50 ug/mL after 24 to 48 hr by cup-plate method; settings: read-out: DIZ
[11] = system: Staphylococcus aureus; assay: Antibacterial activity against Staphylococcus aureus assessed as growth inhibition at 100 ug/mL after 24 to 48 hr by cup-plate method; settings: read-out: DIZ
[12] = system: Staphylococcus aureus; assay: Antibacterial activity against Staphylococcus aureus assessed as growth inhibition at 50 ug/mL after 24 to 48 hr by cup-plate method; settings: read-out: DIZ
[13] = system: Mus musculus; assay: Analgesic activity in Swiss albino Mus musculus (mouse) assessed as latency time of heat-induced paw licking/jumping behaviour at 10 mg/kg after 4 hr by Eddy's hot plate method (reference value: 4.57 +/- 0.11 secs)
[14] = system: Mus musculus; assay: Analgesic activity in Swiss albino Mus musculus (mouse) assessed as latency time of heat-induced paw licking/jumping behaviour at 10 mg/kg after 2 hr by Eddy's hot plate method (reference value: 4.86 +/- 0.18 secs)
[15] = system: Mus musculus; assay: Analgesic activity in Swiss albino Mus musculus (mouse) assessed as latency time of heat-induced paw licking/jumping behaviour at 10 mg/kg after 1 hr by Eddy's hot plate method (reference value: 4.74 +/- 0.21 secs)
[16] = system: Mus musculus; assay: Analgesic activity in Swiss albino Mus musculus (mouse) assessed as latency time of heat-induced paw licking/jumping behaviour at 10 mg/kg after 0.5 hr by Eddy's hot plate method (reference value: 4.17 +/- 0.04 secs)
[17] = system: Rattus norvegicus; assay: Anti-inflammatory activity in Wistar albino Rattus norvegicus (rat) assessed as inhibition of carrageenan-induced paw edema at 10 mg/kg, po administered 30 min prior to carrageenan challenge measured after 3 hr by plethysmometric analysis relative to untreated control
[18] = system: Rattus norvegicus; assay: Anti-inflammatory activity in Wistar albino Rattus norvegicus (rat) assessed as inhibition of carrageenan-induced paw edema at 10 mg/kg, po administered 30 min prior to carrageenan challenge measured after 2 hr by plethysmometric analysis relative to untreated control
[19] = system: Rattus norvegicus; assay: Anti-inflammatory activity in Wistar albino Rattus norvegicus (rat) assessed as inhibition of carrageenan-induced paw edema at 10 mg/kg, po administered 30 min prior to carrageenan challenge measured after 1.5 hr by plethysmometric analysis relative to untreated control
[20] = system: Rattus norvegicus; assay: Anti-inflammatory activity in Wistar albino Rattus norvegicus (rat) assessed as inhibition of carrageenan-induced paw edema at 10 mg/kg, po administered 30 min prior to carrageenan challenge measured after 1 hr by plethysmometric analysis relative to untreated control
[21] = system: Rattus norvegicus; assay: Anti-inflammatory activity in Wistar albino Rattus norvegicus (rat) assessed as inhibition of carrageenan-induced paw edema at 10 mg/kg, po administered 30 min prior to carrageenan challenge measured after 0.5 hr by plethysmometric analysis relative to untreated control

| SMILES | zone of inhibition at 100 µg/mL [1] | zone of inhibition at 50 µg/mL [2] | zone of inhibition at 100 µg/mL [3] | zone of inhibition at 50 µg/mL [4] | zone of inhibition at 100 µg/mL [5] | zone of inhibition at 50 µg/mL [6] | zone of inhibition at 100 µg/mL [7] | zone of inhibition at 100 µg/mL [8] | zone of inhibition at 50 µg/mL [9] | zone of inhibition at 50 µg/mL [10] | zone of inhibition at 100 µg/mL [11] | zone of inhibition at 50 µg/mL [12] | Time [13] | Time [14] | Time [15] | Time [16] | inhibition in vivo at 10 mg/kg [17] | inhibition in vivo at 10 mg/kg [18] | inhibition in vivo at 10 mg/kg [19] | inhibition in vivo at 10 mg/kg [20] | other results |
| --- | --- | --- | --- | --- | --- | --- | --- | --- | --- | --- | --- | --- | --- | --- | --- | --- | --- | --- | --- | --- | --- |
| COc1ccc(F)cc1-c1cccc(-c2nn(CCCN)c(=O)o2)c1 | 12 mm | 10 mm | 12 mm | 5 mm | 21 mm | 17 mm | 16 mm | 19 mm | 15 mm | 12 mm | 17 mm | 12 mm | 5.49 s | 6.84 s | 4.62 s | 4.93 s | 77% | 66% | 55% | 43% | inhibition in vivo at 10 mg/kg [21]: 29% |
| COc1ccc(F)cc1-c1cccc(-c2nn(CCO)c(=O)o2)c1 | 10 mm | 9 mm | 8 mm | 4 mm | 20 mm | 18 mm | 19 mm | 18 mm | 18 mm | 13 mm | 16 mm | 14 mm | 5.59 s | 6.88 s | 4.36 s | 4.96 s | 75% | 69% | 53% | 41% | inhibition in vivo at 10 mg/kg [21]: 28% |
| COc1ccc(F)cc1-c1cccc(-c2n[nH]c(=O)o2)c1 | 28 mm | 15 mm | 21 mm | 12 mm | 13 mm | 10 mm | 14 mm | 12 mm | 8 mm | 8 mm | 13 mm | 9 mm | 6.35 s | 7.41 s | 4.74 s | 4.22 s | 71% | 56% | 49% | 41% | inhibition in vivo at 10 mg/kg [21]: 25% |
| COc1ccc(F)cc1-c1cccc(-c2nn(CCOS(=O)(=O)c3ccc(F)cc3)c(=O)o2)c1 | 9 mm | 5 mm | 6 mm | 5 mm | 15 mm | 10 mm | 16 mm | 20 mm | 12 mm | 15 mm | 21 mm | 15 mm | 6.01 s | 6.17 s | 5.01 s | 4.91 s | 67% | 63% | 50% | 40% | inhibition in vivo at 10 mg/kg [21]: 24% |
